Series [1] in a line: DPPH antioxidant assay. The format is physicochemical. The note with it: compound at 50 µM. From the text:
The 2,2-diphenyl-1-picrylhydrazyl (DPPH) assay was used to determine the antioxidant properties of selected compounds using ascorbic acid, trolox, and quercetin as references. […] From a structural point of view, 21 and 22 share a common pyrimido[2,1-f]purinedione core with propyl or butyl substituents at the N1- and N3-position. Compounds 11i and 11l, containing hexyl or phenoxyethyl as N7-substituents, were the only structures in the groups of bicyclic xanthine derivatives that lacked antioxidant activity in the DPPH assay.
Antioxidant properties of considered structures were evaluated in DPPH test. The assay utilizes a stable free radical 2,2-diphenyl-1-picrylhydrazyl (DPPH). DPPH has a deep violet color in solution and strong absorption band at 520 nm. The antioxidant activity of the tested compounds was defined by their ability to induce the formation of the reduced form of DPPH. Upon reduction, DPPH color turned pale yellow, which manifested by decreased sample absorption at 520 nm and was measured in conducted experiments using EnSpire microplate reader (PerkinElmer). Antioxidant activity of xanthine derivatives and reference compounds was tested in triplicate at 50 µM concentration and normalized to the activity of reference radical scavenger—quercetin.
Figure 2 Antioxidant properties of xanthine derivatives evaluated in the DPPH test. All compounds were tested at 50 µM concentration. Results were normalized to the antioxidant activity measured for quercetin. ASC, ascorbic acid; TLX, trolox; QCT, quercetin.
A general note: The DPPH test is a chemical assay of radical scavenging.

Each structure is given as a SMILES string.

For the compound `CC(C)Cn1c(NCCc2ccc(O)c(O)c2)nc2c1c(=O)n(C)c(=O)n2C` (hydrate or solvate) [Compound 11f, 8-((3,4-Dihydroxyphenethyl)amino)-7-isobutyl-1,3-dimethyl-3,7-dihydro-1H-purine-2,6-dione], the melting point (as a rule, the temperature of the solid-liquid transition) was in the range of 201 to 203 °C.

Compound `Cn1c(=O)c2c(nc(NCCc3ccc(O)c(O)c3)n2Cc2ccccc2)n(C)c1=O` (hydrate or solvate) [Compound 11j, 7-Benzyl-8-((3,4-dihydroxyphenethyl)amino)-1,3-dimethyl-3,7-dihydro-1H-purine-2,6-dione] registered a melting point of 214 to 216 °C.

Compound `Cn1c(=O)c2c(nc(NCCc3ccc(O)c(O)c3)n2CCc2ccccc2)n(C)c1=O` (hydrate or solvate) [Compound 11k, 8-((3,4-Dihydroxyphenethyl)amino)-1,3-dimethyl-7-phenethyl-3,7-dihydro-1H-purine-2,6-dione] gave a melting point of 180 to 182 °C.

For the compound `O=C1O[C@H]([C@@H](O)CO)C(O)=C1O` [Ascorbic acid, reference compound], the “Antioxidative Activity [% of Quercetin Response at 50 µM ± SD]” value in series [1] was 78 ± 1 % of Quercetin Response.

`Cc1c(C)c2c(c(C)c1O)CCC(C)(C(=O)O)O2` (centres unmarked) [Trolox, reference compound]: the “Antioxidative Activity [% of Quercetin Response at 50 µM ± SD]” value in series [1] is 73 ± 1 % of Quercetin Response.
